# Laboratory results: US20110045032A1 (priority 2001, published 2011)
# How the values were obtained:
# [1] = tested on: dust mite-sensitized rabbits; assay: Pulmonary function after allergen challenge, intratracheal powder (Example 25); assay type: in vivo
# Method: (§1) This study defines the effect of 7 days of treatment with DHEA-S on allergen-induced bronchial hyperresponsiveness (BHR), early and late phase responses, and pulmonary inflammation in dust mite-sensitized rabbits. Baseline BHR and inflammation were first determined. The following week, allergen challenge, pulmonary function testing and BALF were performed on the untreated rabbits. Histamine sensitivity was determined 24 hours post allergen challenge. Rabbits were rested for 3 weeks then baseline values were re-established. The following week, DHEA-S (5 mg/day) was delivered once a day for 7 days via an intratracheal powder injector through the endrotracheal tube of the anesthetized rabbit. On day 8, 24 hrs after the last treatment, allergen challenge, pulmonary function testing and BALF were performed as previously. On day 9, 24 hrs after allergen challenge, a histamine challenge was performed. The drug was not micronized prior to use thus only a portion of the administered date was expected to reach the deep lung. The study includes 4 animals studied under a crossover design. The treatment with DHEA-S led to changes in the disease status of the animals that are described in the following paragraph.
# Effects on airway obstruction were measured by changes in dynamic compliance and total lung resistance in response to allergen challenge. Rabbits were monitored for 6 hours following allergen challenge and the values plotted against time. Changes in dynamic compliance were determined by the % change in compliance as compared to the animal's initial saline value recorded prior to challenge. Changes in response to allergen and/or treatment were calculated using the area under the curve (AUC) where an AUC unit is defined as % change×hour. Treatment with DHEA-S attenuated the drop in airway compliance following allergen challenge by 86% as compared to allergen alone. Following allergen alone the total AUC was −146 units compared to −20 units for animals treated with DHEA-S. This difference in the total AUC for vehicle and DHEA-S treated animals was determined to be significant using Student's t-test for paired observations, p=0.036. Similarly, treatment with DHEA-S attenuated the increase in airway resistance following allergen challenge by 54% as compared to allergen alone. […] Variability during the late phase kept differences in AUC between the vehicle and drug treatment groups from being significant when analyzed using a paired t-test.
# [2] = tested on: dust mite-sensitized rabbits; assay: BALF cell counts, intratracheal powder (Example 25); assay type: in vivo
# Method: as §1
# [3] = tested on: dust mite-sensitized rabbits; assay: Pulmonary function after allergen challenge, nebulized (Example 26); assay type: in vivo
# Method: (§2) This study defines the effect of 7 days of treatment with DHEA-S on allergen-induced bronchial hyperresponsiveness (BHR), early and late phase responses, and pulmonary inflammation in dust mite-sensitized rabbits. Baseline BHR and inflammation were first determined. DHEA-S (5 mg/ml, 2 ml nebulized) or an equivalent volume of vehicle was delivered once per day via nebulization through a pediatric facemask covering the nose and mouth on days 1 through 7. On day 8, 24 hours after the last treatment, allergen challenge, pulmonary function testing and BALF were performed. On day 9, 24 hours after allergen challenge a histamine challenge was performed and the lungs removed for histology. The study includes 5 animals studied under a crossover design. There was a 3 week resting period between study arms and lungs were taken during the second treatment arm only. The treatment with DHEA-S led to the changes in the disease status of the animals described in the following paragraph.
# Effects on airway obstruction were measured by changes in dynamic compliance and total lung resistance in response to allergen challenge. Rabbits were monitored for 6 hours following allergen challenge and the values plotted against time. Changes in dynamic compliance were determined by the % change in compliance as compared to the animal's initial saline value recorded prior to challenge. Changes in response to allergen and/or treatment were calculated using the AUC where an AUC unit is defined as % change×hour. Treatment with DHEA-S attenuated the drop in airway compliance following allergen challenge by 62% as compared to vehicle treatment. […] Variability during the early phase kept differences in AUC between the vehicle and drug treatment groups from being significant when analyzed using a paired t-test.
# [4] = tested on: dust mite-sensitized rabbits; assay: BALF cell count, nebulized (Example 26); assay type: in vivo
# Method: as §2
# [5] = Serum and BAL DHEA and DHEA-S levels (Example 26); assay type: in vivo, rabbits; conditions: rabbit, serum, inhaled, 10 mg/day; twenty-four hours after the last of seven daily treatments; prior 4.7
# Method: as §2
# [6] = tested on: dust mite-sensitized rabbits; assay: Lung histology (Example 27); assay type: in vivo; conditions: compared to saline
# Method: This follow-up study compared the effects of DHEA-S and Puimicort® (budesonide inhalation suspension) on allergen-induced bronchial hyperresponsiveness (BHR) to histamine and pulmonary inflammation in dust mite-sensitized rabbits. The study included 18 animals divided into 3 treatment groups: saline, DHEA-S, and Puimicort. The animals were treated for once per day for 5 consecutive days via nebulization through a pediatric facemask covering the nose and mouth. Treatments were DHEA-S, 10 mg/day (5 mg/ml), Pulmicort Respules, 0.5 mg/day (0.5 mg/2 ml, note: this is the standard human dose) or saline (2 ml). A dust mite challenge was performed on day 4, and development of airway inflammation was assessed 6 hours and 30 hours after dust mite challenge. Histamine sensitivity was assessed 30 hours after challenge (day 5) and the lungs removed for histology.
# Analysis of lung sections indicated a moderate level of pulmonary inflammation in all groups. No differences in the level of monocyte phagocytic hyperplasia, airway and blood vessel cuffing by inflammatory cells, pneumonitis, pneumonia, bronchial associated lymphoidal tissue hyperplasia, septal edema, hemorrhage, alveolar edema, or bronchitis/bronchiolitis was observed, although monocyte phagocytic hyperplasia tended to be higher in the Pulmicort and DHEA-S groups, and bronchitis tended to be lower.
# [7] = Acute inhalation toxicity in dogs; assay type: in vivo; conditions: dog, in vivo, inhaled; preclinical toxicology studies; not achieved at this dose; read-out: maximum tolerated dose
# Method: (§3) Other findings were minor in nature and detailed in the reports that follow. Therefore, nebulization of an aqueous solution was determined to be feasible but not practical due to the inability to achieve a sufficient safety factor to support clinical trials.
# dogs = assay: Acute inhalation toxicity in dogs; assay type: in vivo; conditions: inhalation
# Method: as §3
# [8] = in the 6 hours after aerosol dust mite challenge
# [9] = 6 hours after allergen-challenge, compared to vehicle control
smiles,measurement,setting,value
"CC12CCC3C(CC=C4CC(OS(=O)(=O)[O-])CCC43C)C1CCC2=O.[Na+] (stereo not shown) [DHEA-S, Dehydroepiandrosterone sulfate]",attenuation of the drop in airway compliance following allergen challenge,"[1]; 5 mg/day intratracheal powder, 7 days, compared to allergen alone",86%
same,total area under the curve for the change in resistance following allergen challenge,"[1]; 6 hours, control 1069±243, not significant",495
same,total area under the curve for the change in compliance following allergen challenge,"[1]; AUC unit = % change×hour, 6 hours, control −146±29",−20 units
same,attenuation of the increase in airway resistance following allergen challenge,[1]; compared to allergen alone,54%
same,reduction of airway resistance changes,[1]; [8],over 200%
same,total area under the curve for the change in compliance following allergen challenge,"[1]; inhaled or nasal, 6 h",−20±23 units
same,24-hour histamine responsiveness following allergen challenge,"[1]; rabbit, in vivo",downward shift
same,neutrophils in BALF,"[2]; 15 minutes after dust mite challenge, control 10.2",1.3 ×10^4 cells/ml
same,macrophages in BALF,"[2]; 15 minutes after dust mite challenge, control 29.6",19.4 ×10^4 cells/ml
same,neutrophils in BALF,"[2]; 6 hours after challenge, control 43.8",32.2 ×10^4 cells/ml
same,eosinophils in BALF,"[2]; 24 hours after allergen challenge, control 3.2",2.0 ×10^4 cells/ml
same,macrophages in BALF,"[2]; 24 hours after allergen challenge, control 24.1",17.8 ×10^4 cells/ml
same,inhibition of eosinophils,[2]; at 24 hours,slight mean inhibition
same,total AUC for airway resistance,"[3]; 6 hours, control 315",377
same,PC50 histamine,"[3]; 48 hours after the last administration, control 0.84",0.86 mg/mL
same,tolerance of pulmonary function testing and histamine challenges,"[3]; 7 days of treatment via facemask, qualitative",better than vehicle-treated animals
same,effect on airway resistance changes,[3]; [8],no significant effect
same,attenuation of the drop in airway compliance following allergen challenge,"[3]; nebulized 5 mg/ml, 2 ml once per day, 7 days, compared to vehicle treatment",62%
same,nasal congestion following histamine and dust mite challenges,"[3]; rabbit, in vivo",no evidence of nasal congestion
same,lower numbers of eosinophils in BALF,[4]; [9],52%
same,lower numbers of macrophages in BALF,[4]; [9],68%
same,lower numbers of neutrophils in BALF,[4]; [9],69%
same,effect on BALF cell numbers,[4]; 24 hours after dust mite challenge,not significant
same,decrease of inflammatory cell migration into the BAL fluid,"[4]; rabbit, in vivo",68%
same,eosinophils in BAL fluid,"[4]; six hours after dust mite challenge, vehicle 8",4 ×10^4 eosinophils/ml
same,third cell count in BAL fluid (cell type not given),"[4]; six hours after dust mite challenge, vehicle 37",12 ×10^4
same,neutrophils in BAL fluid,"[4]; six hours after dust mite challenge, vehicle 94",29 ×10^4 neutrophils/ml
same,concentration at 24 h after the last dose,[5],49 ng/mL
same,monocyte phagocytic hyperplasia,[6]; not significant,tended to increase
same,necrotizing bronchitis,[6]; not significant,tended to decrease
same,pavementing,[6]; statistically significant,decreased pavementing
same,MTD,[7],> 2 mg/kg/day
same,maximum tolerated dose,dogs,could not be achieved
same,adverse effects to the respiratory tract,dogs; up to the maximum feasible dose,did not produce any adverse affects
